Results: publication PMC6630832, “3-Vinylazetidin-2-Ones: Synthesis, Antiproliferative and Tubulin Destabilizing Activity in MCF-7 and MDA-MB-231 Breast Cancer Cells” (Pharmaceuticals, 2019)

What was measured:
[1] = test system: human MDA-MB-231 breast cancer cells; assay: Cell viability (Alamar Blue) antiproliferative assay in MDA-MB-231 cells; assay type: cell-based; settings: mean ± SEM
Method: (§1) The human breast carcinoma cell line MCF-7, was purchased from the European Collection of Animal Cell Cultures (ECACC) and was cultured in Eagle’s minimum essential medium with 10% fetal bovine serum, 2 mM L-glutamine and 100 μg/mL penicillin/streptomycin. The medium was supplemented with 1% non-essential amino acids. The human breast carcinoma cell line MDA-MB-231 was purchased from the European Collection of Animal Cell Cultures (ECACC). MDA-MB-231 cells were maintained in Dulbecco’s modified Eagle’s medium (DMEM) supplemeted with 10% (v/v) fetal bovine serum, 2 mM L-glutamine and 100 μg/mL penicillin/streptomycin (complete medium). All media contained 100 U/mL penicillin and 100 μg/mL streptomycin. Triple negative breast cancer Hs578T cells and its invasive variant Hs578Ts(i)8 were obtained as a kind gift from Dr. Susan McDonnell, School of Chemical and Bioprocess Engineering, University College Dublin and were cultured in Dulbecco’s Modified Eagle’s Media (DMEM) with GlutaMAX^TM-I, with the same supplement as for MDA-MB-231 cells in the absence of non-essential amino acids. HEK-293T normal epithelial embryonic kidney cells were cultured in Dulbecco’s Modified Eagle’s Medium (DMEM) with GlutaMAX^TM-I in the absence of non-essential amino acids. K562 and HL-60 cells were originally obtained from the European Collection of Cell Cultures (Salisbury, UK).The K562 cells were derived from a patient in the blast crisis stage of CML HL-60 cells were derive from a patient with acute myeloid leukaemia. Cells were cultured in RPMI-1640 Glutamax medium supplemented with 10% FCS media, and 100 μg/mL penicillin/streptomycin. Cells were maintained at 37 °C in 5% CO2 in a humidified incubator. All cells were sub-cultured three times/week (adherent cells by trypsinisation).
(§2) Cells were seeded at a density of 5 × 10^3 cells/well (MCF-7), in triplicate in 96-well plates. After 24 h, cells were then treated with either medium alone, vehicle [1% ethanol (v/v)] or with serial dilutions of CA-4 or β-lactam analogue. Cell viability for MCF-7 and MDA-MB-231 was analysed using the Alamar Blue assay (Invitrogen Corp, Thermo Fisher Scientific, 168 Third Avenue, Waltham, MA, USA) according to the manufacturer’s instructions. After 72 h, Alamar Blue [10% (v/v)] was added to each well and plates were incubated for 3–5 h at 37 °C in the dark. Fluorescence was read using a 96-well fluorimeter with excitation at 530 nm and emission at 590 nm. Results were expressed as percentage viability relative to vehicle control (100%). Dose response curves were plotted and IC50 values (concentration of drug resulting in 50% reduction in cell survival) were obtained using the commercial software package Prism (GraphPad Software, Inc., 2365 Northside, Suite 560, San Diego, CA, USA). Experiments were performed in triplicate on at least three separate occasions.

[2] = test system: human MCF-7 breast cancer cells; assay: Cell viability (Alamar Blue) antiproliferative assay in MCF-7 cells; assay type: cell-based; settings: Homo sapiens, MCF7, 72 h, human MCF-7 breast cancer cells; 72 h; mean ± SEM; read-out: Antiproliferative Activity IC50
Method: as §1, §2

MCF-7 cells = assay: Lactate dehydrogenase (LDH) assay for cytotoxicity; assay type: cell-based; settings: Homo sapiens, MCF7, 72 h, read-out: cell death (LDH assay)
Method: Cytotoxicity was determined using the CytoTox 96 non-radioactive cytotoxicity assay (Promega Corporation; 2800 Woods Hollow Road, Madison, WI, USA) following the manufacturer’s protocol. Briefly, MCF-7 cells were seeded in 96-well plates, incubated for 24 hr and then treated with test compounds (7d, 7h, 7i, 7q, 7r, 7u, 7t, 10d, 10f, 12) as described in the cell viability assay above. After 72 h, 20 μL of ‘lysis solution (10X)’ was added to control wells and the plate was incubated for a further 1 hr to ensure 100% death. 50 μL of supernatant was carefully removed from each well and transferred to a new 96-well plate. 50 μL of reconstituted ‘substrate mix’ was added and the plate was placed in the dark at room temperature for 30 min. After this period, 50 μL of ‘stop solution’ was added to each well and the absorbance was read at a wavelength of 490 nm using a Dynatech MR5000 plate reader. The percentage cell death at 10 μM was calculated.

purified bovine tubulin = target: T1, purified bovine tubulin (Bos taurus, UniProt P81947+Q6B856); assay: Tubulin polymerization assay; assay type: biochemical; settings: 10 μM; for vmax of tubulin polymerization: absorbance at 340 nm, 37 °C
T1 construct: Purified (>99%) bovine brain tubulin (3 mg/mL); purchased Cytoskeleton Inc. BK006; host or cells: bovine brain (tissue-purified)
Method: The assembly of purified bovine tubulin was monitored using a kit, BK006, purchased from Cytoskeleton Inc., 1830 S Acoma St, Denver, CO, 80223, USA.. The assay was carried out in accordance with the manufacturer’s instructions in the tubulin polymerisation assay kit manual using the standard assay conditions. The values reported represent the average values from two independent assays. Purified (>99%) bovine brain tubulin (3 mg/mL) in a buffer consisting of 80 mM PIPES (pH 6.9), 0.5 mM EGTA, 2 mM MgCl2, 1 mM GTP and 10% glycerol was incubated at 37 °C in the presence of either vehicle (2% (v/v) ddH2O) or compounds 7h, 7i, 7s, 7t (initially 10 µM in EtOH); CA-4 and Paclitaxel were used as controls. Light is scattered proportionally to the concentration of polymerised microtubules in the assay. Therefore, tubulin assembly was monitored turbidimetrically at 340 nm at 37 °C in a Spectramax 340 PC spectrophotometer (Molecular Devices, 3860 N 1st St, San Jose, CA, USA). The absorbance was measured at 30 s intervals for 60 min.

NCI 60 cell line panel = assay: NCI60 cell line screen (SRB assay), whole panel or sub-panels; assay type: cell-based; settings: mean over the total NCI 60 cell line panel
Description: The results are summarized in Tables S3–S5, Supplementary Information.
Table S5: NCI 60 cell line mean screening results for selected compounds NCI Ref. Compound GI50 TGI LC50 […]
a GI50 and LC50 are the mean concentrations required to inhibit the growth and kill 50 % of the cells over the total NCI 60 cell line panel in the assay respectively. […]
over the total NCI 60 cell line panel.

[3] = test system: microtubule network of MCF-7 cells; assay: Immunofluorescence microscopy; assay type: cell-based, human; settings: 1 μM, 16 h
Method: Confocal microscopy was used to study the effects of drug treatment on MCF-7 cytoskeleton. For immunofluorescence, MCF-7 cells were seeded at 1 × 10^5 cells/mL on eight chamber glass slides (BD Biosciences, 2350 Qume Dr, San Jose, CA, USA). Cells were either untreated or treated with vehicle [1% ethanol (v/v)], paclitaxel (1 μM), combretastatin A-4 (100 nM) or compound 7s (100 nM) for 16 h. Following treatment cells were gently washed in PBS, fixed for 20 min with 4% paraformaldehyde in PBS and permeabilised in 0.5% Triton X-100. Following washes in PBS containing 0.1% Tween (PBST), cells were blocked in 5% bovine serum albumin diluted in PBST. Cells were then incubated with mouse monoclonal anti-α-tubulin−FITC antibody (clone DM1A) (Sigma-Aldrich, 2033 Westport Center Dr, St. Louis, MO, USA) (1:100) for 2 h at room temperature. Following washes in PBST, cells were incubated with Alexa Fluor 488 dye (1:450) for 1 h at room temperature. Following washes in PBST, the cells were mounted in Ultra Cruz Mounting Media (Santa Cruz Biotechnology Inc., 10410 Finnell Street, Dallas, TX, USA) containing 4,6-diamino-2-phenolindol dihydrochloride (DAPI). Images were captured by Leica SP8 confocal microscopy with Leica application suite X software (Leica Microsystems CMS GmbH Am Friedensplatz 3 D-68165 Mannheim, Germany). All images in each experiment were collected on the same day using identical parameters. Experiments were performed on three independent occasions.

T1 sequence (Q6B856 whole entry): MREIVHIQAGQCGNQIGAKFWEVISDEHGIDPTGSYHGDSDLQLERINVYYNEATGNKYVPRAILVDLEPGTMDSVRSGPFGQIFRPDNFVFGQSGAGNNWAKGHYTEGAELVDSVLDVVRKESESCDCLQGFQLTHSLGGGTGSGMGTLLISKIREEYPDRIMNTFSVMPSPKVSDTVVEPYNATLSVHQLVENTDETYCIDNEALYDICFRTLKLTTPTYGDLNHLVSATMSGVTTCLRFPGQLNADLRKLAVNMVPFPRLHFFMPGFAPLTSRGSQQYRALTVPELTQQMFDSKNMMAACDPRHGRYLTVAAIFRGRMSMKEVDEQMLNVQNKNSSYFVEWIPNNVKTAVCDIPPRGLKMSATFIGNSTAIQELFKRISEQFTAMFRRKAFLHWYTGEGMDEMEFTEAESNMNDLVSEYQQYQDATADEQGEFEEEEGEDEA
T1 sequence (P81947 whole entry): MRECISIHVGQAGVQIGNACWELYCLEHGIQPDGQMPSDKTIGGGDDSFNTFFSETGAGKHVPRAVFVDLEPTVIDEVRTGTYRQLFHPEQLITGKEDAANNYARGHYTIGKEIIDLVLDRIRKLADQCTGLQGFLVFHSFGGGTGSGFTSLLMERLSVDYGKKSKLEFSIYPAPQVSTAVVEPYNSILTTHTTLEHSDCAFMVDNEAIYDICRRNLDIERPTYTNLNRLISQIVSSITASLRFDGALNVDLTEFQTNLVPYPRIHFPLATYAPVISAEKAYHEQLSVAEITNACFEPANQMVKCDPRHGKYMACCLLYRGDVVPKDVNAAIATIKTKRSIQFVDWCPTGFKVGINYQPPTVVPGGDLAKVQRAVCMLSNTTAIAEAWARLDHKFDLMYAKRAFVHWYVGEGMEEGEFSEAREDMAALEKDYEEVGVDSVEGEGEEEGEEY

IC50 [1] [nM] | IC50 [2] [nM] | Structure (SMILES) | cytotoxicity at 10 µM (MCF-7 cells) [%] | other results
191 ± 16 | 690 ± 110 | C=CC1C(=O)N(c2cc(OC)c(OC)c(OC)c2)C1c1ccc(Cl)cc1 (centres unmarked) [Compound 7b, 4-(4-Chlorophenyl)-1-(3,4,5-trimethoxyphenyl)-3-vinylazetidin-2-one] |  | melting point: 104 °C
 | 3830 ± 530 | C=CC1C(=O)N(c2cc(OC)c(OC)c(OC)c2)C1c1ccc([N+](=O)[O-])cc1 (centres unmarked) [Compound 7d, 4-(4-Nitrophenyl)-1-(3,4,5-trimethoxyphenyl)-3-vinylazetidin-2-one] | 7.2 | 
61 ± 7 | 37 ± 3.3 | C=CC1C(=O)N(c2cc(OC)c(OC)c(OC)c2)C1c1ccc(OCC)cc1 (centres unmarked) [Compound 7i, 4-(4-Ethoxyphenyl)-1-(3,4,5-trimethoxyphenyl)-3-vinylazetidin-2-one] | 8.5 | vmax of tubulin polymerization (purified bovine tubulin): 3.84 mOD/min; fold reduction in vmax of tubulin polymerization (purified bovine tubulin; with reference to ethanol control): 2.19 fold
77 ± 9 | 68 ± 10 | C=CC1C(=O)N(c2cc(OC)c(OC)c(OC)c2)C1c1ccc2ccccc2c1 (centres unmarked) [Compound 7n, 4-Naphthalen-2-yl-1-(3,4,5-trimethoxyphenyl)-3-vinylazetidin-2-one] |  | melting point: 145 to 146 °C
 | 6250 ± 5050 | C=CC1C(=O)N(c2cc(OC)c(OC)c(OC)c2)C1c1ccc(C#N)cc1 (centres unmarked) [Compound 7q, 4-[4-Oxo-1-(3,4,5-trimethoxyphenyl)-3-vinyl-azetidin-2-yl]benzonitrile] | 4.5 | 
 | 170 ± 70 | C=CC1C(=O)N(c2cc(OC)cc(OC)c2)C1c1ccc(OC)cc1 (centres unmarked) [Compound 7u, 1-(3,5-Dimethoxyphenyl)-4-(4-methoxyphenyl)-3-vinylazetidin-2-one] | 3.5 | 
 | 544 ± 310 | COc1ccc(C2C(C(C)(C)O)C(=O)N2c2cc(OC)c(OC)c(OC)c2)cc1O (centres unmarked) [Compound 10d, 4-(3-Hydroxy-4-methoxyphenyl)-3-(1-hydroxy-1-methylethyl)-1-(3,4,5-trimethoxy-phenyl)azetidin-2-one] | 9.8 | 
 | 46 ± 41 | COc1ccc(C2C(C(O)C=Cc3ccccc3)C(=O)N2c2cc(OC)c(OC)c(OC)c2)cc1O (centres unmarked) [Compound 10f, 4-(3-Hydroxy-4-methoxy-phenyl)-3-(1-hydroxy-3-phenyl-allyl)-1-(3,4,5-trimethoxy-phenyl)-azetidin-2-one] | 7.6 | 
 |  | CC(=O)O[C@H]1C(=O)[C@@]2(C)[C@H]([C@H](OC(=O)c3ccccc3)[C@]3(O)C[C@H](OC(=O)[C@H](O)[C@@H](NC(=O)c4ccccc4)c4ccccc4)C(C)=C1C3(C)C)[C@]1(OC(C)=O)CO[C@@H]1C[C@@H]2O [paclitaxel, reference compound] |  | effect on microtubule network [3]: Formation of microtubule bundles and pseudo asters; vmax of tubulin polymerization (purified bovine tubulin): 89.4 mOD/min

Structure (SMILES) | IC50 [1] [nM] | IC50 [2] [nM] | cytotoxicity at 10 µM (MCF-7 cells) [%] | other results
C=CC1C(=O)N(c2cc(OC)c(OC)c(OC)c2)C1c1ccc(SC)cc1 (centres unmarked) [Compound 7r, 4-(4-Methylsulfanylphenyl)-1-(3,4,5-trimethoxyphenyl)-3-vinylazetidin-2-one] |  | 51 ± 1 | 4.5 | 
CC=C1C(=O)N(c2cc(OC)c(OC)c(OC)c2)C1c1ccc(OC)c(O)c1 (centres unmarked) [Compound 12, 3-Ethylidene-4-(3-hydroxy-4-methoxy-phenyl)-1-(3,4,5-trimethoxy-phenyl)-azetidin-2-one] |  | 502 ± 212 | 8.4 | 
COc1ccc(C2CC(=O)N2c2cc(OC)c(OC)c(OC)c2)cc1OP(=O)(O)O (centres unmarked) [Compound 17a, 2-Methoxy-5-(1-(3,4,5-trimethoxyphenyl)-4-oxoazetidin-2-yl)phenyl dihydrogen phosphate] | 30 ± 4 | 22 ± 1.5 |  | TGI (mean) (NCI 60 cell line panel): 39800 nM; GI50 (NCI 60 cell line panel; read-out: GI50 (mean)): 141 nM; CC50 (NCI 60 cell line panel; read-out: LC50 (mean)): 87100 nM
